Experimental data from US11090391B2, “Protein nanocages with enhanced mucus penetration for targeted tissue and intracellular delivery” (The Johns Hopkins University, priority 2016, dated 2021).

How the values were obtained:
[1] = biological target: transferrin receptor 1 (TfR 1) on mouse Lewis lung carcinoma (3LL) cells (mouse) (UniProt Q62351)
3LL cells [2] = test: Intracellular trafficking, confocal microscopy; assay type: cell-based, mouse; conditions: 2 hours after addition
[3] = test system: 3LL-based tumor spheroids; test: Penetration of DOX formulations in tumor spheroids; assay type: cell-based, mouse; conditions: 10 μM DOX concentration
Protocol: (§1) Multicellular tumor spheroid models consisting of different cancer cell lines were prepared by modifying a previously reported protocol (Friedrich J, et al, Nature Protocols, 4:309-324 (2009)). Briefly, 50 μL DMEM medium containing 1.5% agarose (wt/vol) was plated onto each well of a 96-well microtiter plate under sterile conditions. After the agarose solidifies, the plates were stored at room temperature until use. For the penetration study, 5×10^3 cells were seeded onto the agarose-plated 96-well plates. After 4-5 days culture to obtain multicellular tumor spheroids (400-500 μm in diameter), the tumor spheroids were carefully transferred into glass bottom dishes. […] After the 2-hour incubation, the cells were observed using confocal microscopy with Z-stack imaging at ˜10 μm intervals. […] The 3D images of spheroids were reconstructed by ZEN microscopy software (Carl Zeiss). For analyzing the penetration distance, the radial intensity distribution profile was determined using a custom-made MATLAB code where αtumor is the radius of individual spheroids and r is the radial distance from the spheroid center (r/αtumor=0 and 1 indicate the center and edge of the tumor spheroid, respectively). […] Quantification analysis of signal intensity was performed with ImageJ software (NIH).
Multicellular tumor spheroids were prepared and post-treatment analyzed as described in Example 4.

[4] = test system: 3LL cells stably expressing firefly luciferase (3LL-Luc); test: In vitro cytotoxicity, luciferase activity; assay type: cell-based, mouse; conditions: 24 hour treatment
Protocol: Cytotoxicity was evaluated by optical imaging of luciferase expression. 3LL cells stably expressing firefly luciferase (3LL-Luc) were treated with various concentrations of PEG-FTn-DOX and DOX for 24 hour. After adding a D-luciferin solution, the bioluminescence imaging was acquired by a Xenogen IVIS Spectrum optical imaging system (Caliper Life Sciences). The luciferase activity was quantified to determine IC50 by fitting the data with nonlinear regression using GraphPad Prism.

[5] = test system: 3LL-Luc orthotopic proximal lung cancer; test: In vivo anti-cancer efficacy, orthotopic proximal lung cancer model; parameters: species or system mouse; conditions: single intratracheal dose 0.25 mg/kg
Source text: To evaluate the efficacy of PEG-FTn-DOX for treating lung airway cancer, an aggressive orthotopic mouse model was established of proximal lung cancer in inbred mice with intact host immunity. The model was established via intratracheal intubation of cancer cells into the tracheal and bronchial epithelium of lung airways (DuPage M, et al., Nature protocols, 4:1064-1072 (2009)), which was relevant to small cell lung cancer and squamous-cell lung cancer. Briefly, female C57BL/6 mice (6-8 weeks) were inoculated with 2.5×10^4 3 LL-Luc cells in 50 μL of DMEM medium via intratracheal intubation using a 22 G×1″ Safelet catheter (Exel International). Three days after the inoculation, bioluminescence signal in the lung was observed using a Xenogen IVIS Spectrum optical imaging system. […] The tumor growth was monitored at various time points using an IVIS imaging system and the bioluminescence signal in lung at different time points was quantitatively analyzed by the Living Image® (Caliper Life Sciences) software. The survival of mice was recorded daily, and data was analyzed by Kaplan-Meier survival curve.
The luciferase activity of 3LL-Luc was visualized and quantified by a Xenogen IVIS Spectrum optical imaging system. In brief, mice were anesthetized with 2% isoflurane in O2 and received intraperitoneal injection of D-luciferin solution in PBS at a dose of 150 mg/kg. Serial images were acquired between 5 and 20 minutes after the D-luciferin administration, and the bioluminescence signal intensity was quantified by the Living Image® software.

[6] = Hydrodynamic diameter by gel-filtration / size exclusion chromatography; assay type: physicochemical
Protocol: Briefly, the protein standards with known HD (Bio-Rad), including M1 (thyroglobulin; 669 kDa, 18.8 nm HD), M2 (γ-globulin; 158 kDa, 11.9 nm HD), M3 (ovalbumin; 44 kDa, 6.13 nm HD), M4 (myoglobin; 17 kDa, 3.83 nm HD) and M5 (vitamin B12; 1.35 kDa, 1.48 nm HD), were analyzed using GFC and subsequently a standard curve of HD vs retention time was established.

[7] = PEG surface density, fluorometric determination; assay type: physicochemical; conditions: for PEG2k density: reassembled FTn by % PEGylated protein
Protocol: The solution was placed on a rotary incubator for 4 hours and then concentrated by centrifugation (Amicon Ultra-0.5 mL 30 K MWCO; Millipore). […] The density was fluorometrically determined (Suk J S, et al., Advanced Drug Delivery Reviews, 99(Pt A):28-51, Epub 2015).
The ratio [Γ/SA] of total unconstrained PEG surface coverage area [Γ] to total particle surface area [SA] determines the surface PEG conformation: low-density mushroom and high-density brush regimes when [Γ/SA]<1 and [Γ/SA]≥1, respectively (Xu Q, et al., ACS Nano, 9. 9217-9227 (2015); Auguste D T, Biomaterials, 27, 2599-2608 (2006)). Briefly, the surface area occupied by one unconstrained PEG chain was calculated by random-walk statistics and given by a sphere of diameter ξ: ξ=0.76 m^1/2[Å], where m is MW of PEG chain, and the surface area occupied by one PEG molecule can be determined by π(ξ/2)^2. Thus, the surface area occupied by unconstrained PEG of MWs 10, 5 and 2 kDa is 45, 23 and 9 nm^2, respectively. The total unconstrained PEG surface area coverage [Γ] was then calculated by multiplying the area occupied at the surface per PEG chain by the total number of PEG chains per protein nanocage.

[8] = Colloidal stability by agarose gel electrophoresis (PBS, 10% human plasma); assay type: physicochemical; conditions: 0.5% agarose gel, 10% human plasma 1 hour 37° C.
Protocol: Nanocages reassembled in phosphate buffered saline (PBS) with varying % of PEGylated protein were analyzed by electrophoresis within a 0.5% agarose gel to determine any aggregation.

A549 = test: Cell uptake of FTn, flow cytometry; assay type: cell-based, human; conditions: TfR 1-mediated
Protocol: (§2) After washing with cold PBS, cells were analyzed using an AccuriC6 flow cytometer (BD Biosciences). […] The data was fitted to a binding curve via non-linear regression method using GraphPad Prism (GraphPad Software).

3LL cell spheroids = test: Penetration of Cy5-labeled FTn in multicellular tumor spheroids; assay type: cell-based, mouse; conditions: for distribution in spheroids (3D-reconstructed confocal images): 40 nM, 2-hour incubation; for mean fluorescence signal intensity in spheroids compared to FTn: FIG. 4A
Protocol: (§3) See detailed procedures as described in Example 4.
as §1

[9] = Airway distribution after intranasal administration; assay type: in vivo, mouse; conditions: for coverage of mouse tracheal surfaces: intranasal, 10 minutes after administration; for retention in lung airways (overall fluorescence intensity): compared to non-PEGylated FTn
Source text: All experiments were approved by the Institutional Animal Care and Use Committee.
Female CF-1 mice (6-8 week) were anesthetized under continuous flow of isoflurane (2% in oxygen). […] Ten minutes after administration, mice were sacrificed and the entire lungs (including trachea) were removed and frozen in Tissue-Tek optimal cutting temperature compound (Sakura Finetek). Tracheas were sectioned on a Leica Cryostat (Leica Biosystems) with a section thickness of 10 μm. The sections were stained with Prolong Gold antifade with DAPI (Life technologies), and fluorescence images of the sections were obtained using a Zeiss confocal microscope. To quantify the particle distribution, the acquired images were analyzed by following an image-based analysis method that was previously reported (Mastorakos P, et al., Proc Nat Acad Sci USA, 112(28):8720-5 (2015)). Briefly, at least 10 fluorescence images at 10× magnification were taken for the lungs harvested from individual animals. The images were quantified with ImageJ software. An average coverage and total particles in airways were determined for each mouse, and then these values were averaged over a group of n=4 mice.

3LL cells [10] = test: Cell uptake / TfR 1-dependent binding of Cy5-labeled FTn formulations, flow cytometry; assay type: cell-based, mouse
Protocol: as §3
Subsequently, cells were incubated with Vibrant® DiO cell labeling solution (Life technologies) for 10 minutes following manufacturer's protocol (sub-cellular localization at cell membranes & lipids). After three times washing with PBS, the cells were fixed with Z-fix solution (Anatech) for 15 min, followed by 1.5 μg/mL DAPI staining at room temperature.
as §2

[11] = test system: TfR 1-positive lung cancer cells; test: Uptake of FTn/FTn-PEG2k by panel of cell lines; assay type: cell-based; conditions: C2C12, NCI-H69, H69-AR, SW210.5, A549, NCI-H460, NCI-H1975, PC 9
Protocol: as §2
TfR 1 expression was determined by western blot analysis with anti-TfR 1 antibody (Ab) (BD Pharmingen) in various cell lines in vitro, including mouse Lewis lung carcinoma (3LL) cells, mouse myoblast (C2C12, a TfR 1-negative cell line as the negative control), human small cell lung cancer cells (NCI-H69, H69-AR, and SW210.5), and human non-small cell lung cancer cells (A549, NCI-H460, NCI-H1975, and PC 9). The expression was also determined when 3LL, A549, PC9, and SW210.5 cells were incubated in 20% oxygen and 1% oxygen (i.e. hypoxic condition).

[12] = Physicochemical properties (hydrodynamic diameter, ζ-potential, drug loading)
Protocol: The DOX conjugated PEG-FTn is denoted as FTn/FTn-PEG2k/DOX. […] The mixture was incubated for 1 hour and 1.5 mg EDC was added to activate a carboxyl group of each DOX-linker conjugate. The resultant compounds were analyzed using high-performance liquid chromatography (HPLC, Varian Inc.) equipped with a C18 reverse phase column. […] The final product was extensively dialyzed (10 kDa MWCO; Thermo Scientific) and purified with a PD-10 column.

[13] = test system: orthotopic 3LL lung cancer; conditions: mouse, in vivo
Protocol: The mice were sacrificed 2 hour post-administration, and the entire lungs were isolated and frozen slices were prepared.

Molecule: hybrid nanocage FTn/FTn-PEG2k (50% ferritin and 50% ferritin PEGylated with 2 kDa PEG) (ligand)
- relative uptake (%) by 3LL cells, non-PEGylated FTn = 100% (% of the uptake of non-PEGylated FTn) [1]: > 80

Molecule: COc1cccc2c1C(=O)c1c(O)c3c(c(O)c1C2=O)C[C@@](O)(C(=O)CO)C[C@@H]3O[C@H]1C[C@H](N)[C@H](O)[C@H](C)O1 [DOX, doxorubicin, reference compound]
- intracellular localization of DOX (3LL cells [2]): primarily localized in the cell nuclei
- distribution in spheroids (3D confocal images) [3]: remained primarily at the periphery of the spheroids
- IC50 [4]: 480 nM
- median survival [5]: 18 days

Molecule: FTn: ferritin heavy-chain nanocages self-assembled from recombinant human ferritin heavy chain, without PEG
- diameter from size exclusion chromatography ([6]; pH 2.0, broad peak): 1.8-5.4 nm
- diameter from size exclusion chromatography ([6]; pH 7.4, single peak): 13.2 nm
- PEG2k density [7]: 0 #/nm^2
- aggregation during electrophoresis (colloidal stability) [8]: aggregated and were stuck in the wells
- uptake by A549 (A549): taken up
- distribution in spheroids (3D-reconstructed confocal images) (3LL cell spheroids): uniformly distributed throughout the entire spheroids including the core
- mean fluorescence signal intensity in spheroids in presence of anti-TfR 1 Ab (3LL cell spheroids; 10-fold molar excess, 1 hour): significantly decreased
- coverage of mouse tracheal surfaces [9]: 50±9%
- distribution in airways ([9]; mucus-covered large airways (trachea)): sparsely distributed in airways

Molecule: FTn-Cy5: FTn labeled with fluorescent dye Cy5, ~23 dye molecules per FTn
- uptake in the presence of anti-TfR 1 antibody (3LL cells [10]; 10-fold molar excess anti-TfR 1 Ab): significantly reduced uptake
- penetration in presence of excess unlabeled FTn (3LL cell spheroids; 10-fold molar excess, 1 hour): reduced significantly

Molecule: FTn/FTn-PEG2k: hybrid nanocage formed with 50% ferritin and 50% PEGylated ferritin using PEG2k
- PEG surface density ([7]; hybrid nanocage, fluorometric measurement): ~0.24±0.03 PEG/nm^2
- PEG2k density [7]: 0.21 #/nm^2
- tumor cell uptake compared to non-PEGylated FTn (3LL cells [10]; 3LL cells, 2 kDa PEG, non-PEGylated FTn = 100%): more than 80%
- uptake by TfR 1-positive cells [11]: efficiently taken up
- distribution in spheroids (3D-reconstructed confocal images) (3LL cell spheroids): uniformly distributed throughout the entire spheroids including the core
- mean fluorescence signal intensity in spheroids in presence of anti-TfR 1 Ab (3LL cell spheroids; 10-fold molar excess, 1 hour): significantly decreased
- mean fluorescence signal intensity in spheroids compared to FTn (3LL cell spheroids): indistinguishable
- retention in lung airways (overall fluorescence intensity) [9]: retained at higher levels
- coverage of mouse tracheal surfaces [9]: 77±8%
- Hydrodynamic diameter [12]: 13.6 ± 1.3 nm
- ζ-potential [12]: −4.1 ± 1.1 mV
- colocalization with lysosomes (3LL cells [2]): colocalized with lysosomes
- localization in orthotopic lung cancer [13]: found preferentially within the tumor tissue

Molecule: FTn/FTn-PEG5k: hybrid FTn with 1:1 molar ratio of FTn and FTn conjugated with 5 kDa PEG
- distribution in spheroids (3D-reconstructed confocal images) (3LL cell spheroids): primarily near the periphery of tumor spheroids
- mean fluorescence signal intensity in spheroids compared to FTn (3LL cell spheroids): significantly lower intensity
- retention in lung airways (overall fluorescence intensity) [9]: retained at higher levels
- coverage of mouse tracheal surfaces [9]: 80±8%

Molecule: FTn/FTn-PEG10k: hybrid FTn with 1:1 molar ratio of FTn and FTn conjugated with 10 kDa PEG
- uptake compared to the uptake of FTn (3LL cells [10]; FIG. 3C): significantly reduced
- distribution in spheroids (3D-reconstructed confocal images) (3LL cell spheroids): primarily near the periphery of tumor spheroids
- mean fluorescence signal intensity in spheroids compared to FTn (3LL cell spheroids): significantly lower intensity
- coverage of mouse tracheal surfaces [9]: 74±8%
